≈ marks a conversion by molar mass, not a printed value. Read-outs that look alike come from different tables or passages of the source. Positions of bridges follow the written chain, without caps; N, C: chain ends. Non-standard residues stand in square brackets, D forms with d. Residues, ends and D or L forms follow the SMILES beside them. No end group written: not given here.
What was measured:
[1] = Mouse LD50 (modified LD50 technique); type: in vivo; conditions: for LD50: IV
[2] = system: splenocyte recall response to Ova; experiment: Splenocyte recall cultures from ovalbumin-challenged treated mice; type: in vivo, mouse; parameters: IL-4, Avg. of Group: unit not given here
Method: In another study, BALB/c mice were sensitized with 0.1 mg of ovalbumin (OVA) or PBS (diluent control) intraperitoneally. Eight days following initial sensitization mice were challenged intratracheally with 1% ovalbumin or PBS (diluent control). On days fifteen, eighteen, twenty one, and thirty four, mice were challenged intratracheally with 2% ovalbumin of PBS. […] Thirty minutes following treatment, mice were challenged intratracheally with 2% OVA and sacrificed 3 hours after OVA challenge. […] On day 34 mice were re-challenged intratracheally with either 2% OVA or PBS. Mice were sacrificed 3 hours after challenge. Following sacrifice on day 21 or 34, lungs were collected for histopathology and for isolation of cells for total cell counts and identification by FACS analysis. Serum was collected for IgE and IL-4 levels. Spleens were collected for cytokine and antibody recall responses.

[3] = Competition of 125I-MCP-1 binding to heparin-coated agarose beads; conditions: 10^−11 to 10^−4 M
From the text: Chemokines bind to glycosaminoglycans on the cell surface, which may facilitate chemokine receptor binding and subsequent signaling. […] This was followed by a monophasic displacement curve at concentrations of approximately 10^−7 to 10^−5 M MCP-1.

[4] = in vivo; conditions: female, Sprague-Dawley, rat, iv, 8.8 mg; for dose excreted: rats, 8.8 mg i.v.
[5] = physchem
[6] = molecular target: T1, Recombinant human latent TGF-β1 (Homo sapiens, UniProt P01137); experiment: Latent TGF-β1 activation ELISA (R2X capture); type: biochemical; parameters: key: −: A minus indicates no detectable activity in the assay; +: The number of pluses is a qualitative indicating of the activity of each peptide in each assay; ++: The number of pluses is a qualitative indicating of the activity of each peptide in each assay; +++: The number of pluses is a qualitative indicating of the activity of each peptide in each assay; ++++: The number of pluses is a qualitative indicating of the activity of each peptide in each assay; +++++: The number of pluses is a qualitative indicating of the activity of each peptide in each assay; conditions: test peptide at 100 nM, 37° C., 90 minutes
T1 construct: purchased R&D Systems; host or cells: CHO cells
T1 sequence (P01137 30-278 limits assumed): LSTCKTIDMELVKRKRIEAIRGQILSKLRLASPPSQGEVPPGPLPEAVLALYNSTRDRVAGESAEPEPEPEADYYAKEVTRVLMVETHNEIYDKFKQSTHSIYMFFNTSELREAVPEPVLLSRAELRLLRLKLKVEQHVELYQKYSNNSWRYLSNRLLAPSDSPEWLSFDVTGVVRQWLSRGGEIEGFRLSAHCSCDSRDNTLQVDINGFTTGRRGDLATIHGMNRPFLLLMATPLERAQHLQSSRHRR
Method: To test whether a KXK tripeptide activates TGF-beta, a direct ELISA-type assay can be used. Recombinant human latent TGF-β1 produced in CHO cells (R&D Systems) was incubated with the test activator. For example, 200 ng of latent TGF-β1 (at 20 μg/ml) was incubated with test peptide at 100 nM final concentration at 37° C. for 90 minutes. Following incubation, the TGF-β is incubated with the recombinant extracellular domain of the Type II TGF-β receptor (R2X) which binds only the active and not the latent forms of TGF-β1 (Clin. Chim. Acta, 235, 11 (1995)). For example, 1 μg of purified R2X is coated onto a Maxisorp ELISA plate well in 50 μl of 100 mM sodium carbonate for 2 hours at 4° C., and non-specific protein binding then blocked incubation with 5% sucrose 5% Tween-20 in Tris-buffered saline for 1 hour at room temperature.
The TGF-β sample is then incubated with the coated and blocked wells for 2 hours at room temperature with shaking. Wells are washed 3 times quickly with Tris-buffered saline containing 0.05% Tween-20 between each incubation. If any of the latent TGF-β1 has been activated by the incubation with test peptide, it is captured by the R2X, while remaining latent TGF-β1 is washed away. Captured active TGF-β1 is then detected by incubation with a suitable detection agent, such as a peroxidase conjugated polyclonal anti-TGF-beta antibody. For example, the wells are incubated with 200 μl of BDA19 chicken anti-TGF-β1 antibody coupled to horseradish peroxidase for 90 minutes at room temperature with shaking. Any bound peroxidase is then detected using a suitable chromogenic substrate (e.g., K-BLUE TMB substrate solution). The amount of active TGF-β generated is estimated by interpolation of a standard curve constructed using known amounts of active TGF-β1 (R&D Systems).

[7] = system: MCP-1 co-mitogenic effect, cultured smooth muscle cells; experiment: Co-mitogenic effect of MCP-1 on cultured smooth muscle cells; type: cell-based; conditions: 100 μM; MCP-1 with 0.5% fetal calf serum
Method: Many chemokines are co-mitogenic with low concentrations of FCS, e.g., 50 ng/ml MCP-1+0.5% FCS is a mitogen for smooth muscle cells. Assays well known to the art for determination of DNA synthesis induced by any known chemokine plus a low concentration (<5%) of FCS on suitable cells (e.g., smooth muscle cells) in the presence and absence of the agent may be employed to screen agents for such inhibitory activity. See Porreca et al., J. Vasc. Res., 34, 58 (1997), the disclosure of which is incorporated by reference herein.
Peptide 3(1-12)[MCP-1] […] MCP-1 has been reported to be a weak co-mitogen with 0.5% fetal calf serum for cultured smooth muscle cells. […] (SEQ ID NO:1) is an MCP-1 receptor antagonist. The observation that peptide 3(1-12)[MCP-1]

[8] = system: chemokine receptors on the surface of Jurkat cells; experiment: Binding to chemokine receptors on Jurkat cells; parameters: species or system human
Method: For Scatchard analysis, the absorbance readings at 450 nm were calibrated, by reference to a standard curve in which known amounts of labeled peptide were coupled to derivatized sepharose beads (activated thiol-sepharose 4B; Sigma T8512) via the cysteine residue in each peptide. Briefly, known amounts (1 fmol to 1 pmol) of biotin-labeled peptide were incubated with 1 mg of activated thiol-sepharose beads in 100 μl of PBS at 37° C. for 1 hour. Free activated thiols were then blocked by addition of cysteine to a final concentration of 10 mM. The peptide-conjugated beads were then washed 5 times in PBS and treated exactly as for the cells described above. The absorbance at 450 nm obtained when a known amount of peptide was coupled to the beads was used to construct a standard curve which was used to convert the absorbance readings obtained with cells into number of molecules of labeled peptide which had bound.

Question: For CC[C@@H](C)[C@H]1NC(=O)[C@@H](CCC(N)=O)NC(=O)[C@H](N)CSSC[C@H](C(N)=O)NC(=O)[C@@H](CC(C)C)NC(=O)[C@@H](CC(=O)O)NC(=O)[C@H]2CCCN2C(=O)[C@@H](CCCCN)NC(=O)[C@@H](CCC(N)=O)NC(=O)[C@@H](CCCCN)NC(=O)[C@@H](Cc2c[nH]c3ccccc23)NC1=O (H-[dC][dQ][dI][dW][dK][dQ][dK][dP][dD][dL][dC]-NH2; disulfide 1-11; N-terminus assumed), which “lethality after intraperitoneal administration” value ([1]; 11 mg i.p.) is on record?
Answer: Its value is “did not result in lethality”.

Question: And the LD50 [1]?
Answer: The LD50 was 11.4 mg/mouse.

Question: And the LD50 ([1]; in vivo, read-out: LD50)?
Answer: The LD50 was 569 mg/kg.

Question: And the “IL-4, Avg. of Group” value ([2]; Group 5: Ova days 8, 15, 18, 21, peptide BID 14 days, sacrifice day 34 (No recent Ova challenge), 0 μg/ml Ova)?
Answer: Its value is 8.05.

Question: And the “Total IgE (1 week splenocyte cultures)” value ([2]; Group 5, 5 μg/ml Ova)?
Answer: Its value is 0.082 ng/mL.

Question: And the “Total IgE (1 week splenocyte cultures), Avg.” value ([2]; Group 5, 5 μg/ml Ova)?
Answer: The value was 0.021.

Question: What about the “displacement of 125I-MCP-1 from heparin-coated agarose beads” value [3] of the same molecule?
Answer: The value was “did not result in displacement”.

Question: What about the half-life [4] of the same molecule?
Answer: Its half-life is ~10 min.

Question: And the dose excreted ([4]; administered dose recovered in urine over 24 hours)?
Answer: The dose excreted was ~70%.

Question: What about the dose excreted ([4]; dose excreted in urine over the first two hours) of the same molecule?
Answer: Its dose excreted is > 55%.

Question: Which pKa [5] does the source give for C=CCCCCCCCCC(=O)N[C@H]1CCC(=O)NC1=O [A-I (NR58.4), [3S]-3-(undec-10-enoylamino)piperidine-2,6-dione] here?
Answer: The pKa was ~11.

Question: And the solubility ([5]; organic solvent or mixture)?
Answer: Its solubility is > 200000 µg/mL.

Question: What about the solubility ([5]; pH 11, water) of the same molecule?
Answer: The solubility was 5000 µg/mL (≈ 17 mM).

Question: Which “TGF-beta Activator” value [6] does the source give for NCCCC[C@H](NC(=O)[C@H](CCC(N)=O)NC(=O)[C@@H](N)CCCCN)C(=O)O [KQK] here?
Answer: The value was “−”.

Question: For EICADPKQKWVQ [peptide 3(1-12)[MCP-1]], which “effect on the co-mitogenic effect of MCP-1 for cultured smooth muscle cells” value [7] is on record?
Answer: Its value is “completely abolished”.

Question: Which results are given for “SYRRITSSKCPKEAV [peptide 2(1-15)[MCP-1]]”?
Answer: B, binding sites on Jurkat cells [8]: 55,000 sites/cell; Ka, chemokine receptors on the surface of Jurkat cells [8]: 250 nM

Reference: patent publication US7989466B2, “Methods to inhibit or augment an inflammatory response” (Cambridge Enterprise Limited, priority 1999, dated 2011)
